The source of these data is ChEMBL document CHEMBL1862790, “Optimisation of fenarimol series for the treatment of Chagas disease”.

In data set [1] the test system is Trypanosoma cruzi. Briefly: microbe, parasite or virus in culture. It counts as functional, Tulahuen LacZ, Clone C4. To be noted: Trypanosoma cruzi, Tulahuen LacZ, Clone C4.
Data set [2] can be described thus: DNDI: Cytotoxicity against L-6 rat myoblasts from skeletal muscle cells. Conditions: L6 rat skeletal muscle myoblast cells, IC50.
The test system of data set [3] is Trypanosoma cruzi. Briefly: microbe, parasite or virus in culture. Conditions: Trypanosoma cruzi, Tulahuen LacZ, Clone C4. Type of data set: functional, organism-based, Tulahuen LacZ, Clone C4.

The structures appear in SMILES notation.

Broadly, the IC90 is the concentration needed for an effect of 90%. Low readings indicate an effect from little substance, high ones a need for much substance. In general, IC50 refers to the point on the concentration scale where inhibition reaches its midpoint. `CCCCOC(Cc1ccc(Cl)nc1)c1ccc(Cl)cc1Cl` (stereo unspecified) returned a 90% effect concentration (IC90) in data set [1] of more than 10000 nM. Further, the concentration for half-maximal inhibition (IC50) is 91400 nM in data set [2] and more than 10000 nM in data set [3].

In data set [1], `Fc1cc(Cl)ccc1C(NC1CCN(Cc2ccc(C(F)(F)F)cc2)CC1)c1cccnc1` (stereo unspecified) registered an IC90 of 93 nM. For the same molecule, the IC50 in data set [2] is 26600 nM; in data set [3] it was 48 nM.

`CN(C)C(=O)N1CCN(C(c2cncnc2)c2ccc(Cl)cc2F)CC1` (stereo unspecified) registered a 90% effect concentration (IC90) in data set [1] of 940 nM. Also, the IC50 in data set [2] was more than 100000 nM; in data set [3] it was 480 nM.

`Cc1noc(C)c1C(=O)NC1CCN(C(c2ccc(C(F)(F)F)cc2)c2cccnc2)CC1` (stereo unspecified) showed a 90% effect concentration (IC90) in data set [1] of 28 nM. Further, the IC50 is more than 100000 nM in data set [2] and 9 nM in data set [3].

For `CS(=O)(=O)NC1CCN(C(c2cnccn2)c2ccc(F)cc2F)CC1` (stereo unspecified), in data set [1], it took 4980 nM to reach the 90% level (IC90). Moreover, the figures for the IC50 in data set [2] and in data set [3] were more than 100000 nM and 1380 nM, respectively.

In turn, `O=C1CCCN1CCCNC(c1ccc(Cl)cc1)c1cccnc1` (stereo unspecified) gave a 90% effect concentration (IC90) in data set [1] of 820 nM. For the same molecule, the half-inhibitory concentration (IC50) is more than 100000 nM in data set [2] and 378 nM in data set [3].

In data set [1], `Cc1nocc1C(=O)NC1CCN(C(c2ccc(C#N)cc2)c2cccnc2)CC1` (stereo unspecified) registered an IC90 of 101 nM. Further, the figures for the IC50 in data set [2] and in data set [3] were more than 100000 nM and 55 nM, respectively.

In the case of `CC(C)(C)OC(=O)NC1CCN(C(c2ccc(C(F)(F)F)cc2)c2cccnc2)CC1` (stereo unspecified), it took 38 nM to reach the 90% level in data set [1] (IC90). The half-inhibitory concentration (IC50) in data set [2] is 48000 nM; in data set [3] it was 11 nM.

Turning to `CC(C)(C)C(=O)N1CCC(NC(c2ccc(C(F)(F)F)cc2)c2cncs2)CC1` (stereo unspecified), in data set [1], the IC90 came to 94 nM. Further, the figures for the IC50 in data set [2] and in data set [3] were more than 100000 nM and 34 nM, respectively.

Turning to `OC(c1ccc(Cl)cc1)c1cccnc1` (stereo unspecified), in data set [1], the 90% effect concentration (IC90) is more than 10000 nM. Also, the results for the IC50 in data set [2] and in data set [3] were more than 100000 nM and 4750 nM, respectively.

For `CCN(CC)C(=O)NC1CCN(C(c2ccc(C#N)cc2)c2cccnc2)CC1` (stereo unspecified), the concentration for an effect of 90% (IC90) in data set [1] worked out at 85 nM. The IC50 was more than 100000 nM in data set [2] and 28 nM in data set [3].

Regarding `Cc1cc(C(=O)NC2CCN(C(c3ccc(C(F)(F)F)cc3)c3cccnc3)CC2)no1` (stereo unspecified), the concentration for an effect of 90% (IC90) in data set [1] is 27 nM. In addition, the results for the concentration for half-maximal inhibition (IC50) in data set [2] and in data set [3] were 47400 nM and 9.3 nM, respectively.

In data set [1], `NC(=O)c1cccc(C(O)(c2ccc(C(F)(F)F)cc2)c2cccnc2)c1` (stereo unspecified) returned a 90% effect concentration (IC90) of 300 nM. Besides, the 50% inhibitory concentration (IC50) was more than 100000 nM in data set [2] and 70 nM in data set [3].

As for `O=C(C1CC1)N1CCN(C(c2ccc(Cl)cc2)c2cncnc2)CC1` (stereo unspecified), it took 920 nM to reach the 90% level in data set [1] (IC90). For the same molecule, the IC50 in data set [2] was more than 100000 nM; in data set [3], 500 nM.

As to `O=C(NC1CCCC1)N1CCN(C(c2ccc(Cl)cc2)c2cncnc2)CC1` (stereo unspecified), in data set [1], it took 620 nM to reach the 90% level (IC90). The half-maximal inhibitory concentration (IC50) in data set [2] was more than 100000 nM; in data set [3] it was 230 nM.

Molecule `O=S(=O)(c1ccc(C(F)(F)F)cc1)N1CCN(C(c2cncnc2)c2ccc(Cl)cc2F)CC1` (stereo unspecified) returned an IC90 in data set [1] of 220 nM. Moreover, the values for the 50% inhibitory concentration (IC50) in data set [2] and in data set [3] were 74700 nM and 76 nM, respectively.

As to `CC(C)Oc1ccc(C(NC2CCN(S(C)(=O)=O)CC2)c2cccnc2)cc1` (stereo unspecified), it took 380 nM to reach the 90% level in data set [1] (IC90). For the same molecule, the concentration for half-maximal inhibition (IC50) was more than 100000 nM in data set [2] and 140 nM in data set [3].

In the case of `Fc1cc(Cl)ccc1C(NC1CCN(c2ccc(Cl)cc2)CC1)c1cccnc1` (stereo unspecified), the concentration for an effect of 90% (IC90) in data set [1] was found to be 25 nM. In addition, the values for the IC50 in data set [2] and in data set [3] were 47200 nM and 7.5 nM, respectively.

Turning to `Cc1nnc(N2CCC(NC(c3ccc(C(F)(F)F)cc3)c3cccnc3)CC2)s1` (stereo unspecified), the IC90 in data set [1] is 168 nM. In addition, the half-maximal inhibitory concentration (IC50) was more than 100000 nM in data set [2] and 69.5 nM in data set [3].

Regarding `CON=C(c1ccc(C(F)(F)F)cc1)c1cnccn1`, the concentration for an effect of 90% (IC90) in data set [1] was more than 1000 nM. The results for the IC50 in data set [2] and in data set [3] were more than 100000 nM and more than 1000 nM, respectively.

Consider `Cc1ncsc1C(=O)NC1CCN(C(c2cncnc2)c2ccc(Cl)cc2F)CC1` (stereo unspecified), for which, in data set [1], the IC90 stood at 436 nM. Besides, the IC50 in data set [2] was more than 100000 nM; in data set [3] it was 78.5 nM.

As to `FC(F)(F)c1ccc(C(NCC2CCCCC2)c2cccnc2)cc1` (stereo unspecified), in data set [1], the IC90 is 220 nM. In addition, the 50% inhibitory concentration (IC50) in data set [2] turned out to be 54000 nM; in data set [3] it was 110 nM.

Turning to `Clc1ccc(C(NCCc2c[nH]c3ccccc23)c2cccnc2)cc1` (stereo unspecified), the IC90 in data set [1] was 190 nM. Also, the values for the IC50 in data set [2] and in data set [3] were 48700 nM and 14 nM, respectively.

Regarding `O=C(OCc1ccccc1)N1CCN(C(c2ccc(Cl)cc2)c2cccnc2)CC1` (stereo unspecified), the IC90 in data set [1] was 99 nM. The figures for the IC50 in data set [2] and in data set [3] were 51600 nM and 34 nM, respectively.

Consider `CC(C)Oc1ccc(C(O)(c2cccnc2)c2cccc(C(N)=O)c2)cc1` (stereo unspecified), for which, in data set [1], the IC90 was 330 nM. Also, the IC50 is 69700 nM in data set [2] and 92 nM in data set [3].

In the case of `CC(=O)NC1CCN(C(c2cnccn2)c2ccc(F)cc2F)CC1` (stereo unspecified), the 90% effect concentration (IC90) in data set [1] was more than 1000 nM. Further, the results for the 50% inhibitory concentration (IC50) in data set [2] and in data set [3] were more than 100000 nM and more than 1000 nM, respectively.

Turning to `Cc1nc(C)c(C(=O)NC2CCN(C(c3ccc(C#N)cc3)c3cccnc3)CC2)s1` (stereo unspecified), the 90% effect level in data set [1] (IC90) was put at 118 nM. Also, the figures for the half-maximal inhibitory concentration (IC50) in data set [2] and in data set [3] were more than 100000 nM and 59 nM, respectively.
